Data set [1] concerns Influenza A virus WSN strain (A/WSN/33). Put plainly: Influenza A virus nucleoprotein ELISA / Western blot assay. The class given is cell-based. The settings on record: ELISA and Western blot. Background: In an ELISA, binding on a coated surface is turned into a signal by an enzyme label.
A further data set relates to ISG54 promoter. Put plainly: ISG54-luciferase reporter assay in Huh7-ISG54-Luc cells. The class given is cell-based, human. The settings on record: dose response (5-50 μM), 24 h. (In general: A reporter such as luciferase makes a cellular process visible.)
In another data set the test system is actin promoter. Put plainly: Actin promoter control cell line counter screen (β-actin-LUC). The class given is cell-based, human. On the technique in general: The purpose of a counterscreen is to sort out artefacts and off-target activity.
A further data set concerns Huh7, MRC5 and 293 cells. Put plainly: MTS cytotoxicity assay in multiple cell types (Huh7, MRC5, 293). The class given is cell-based, human. Here is the method:
All lead molecules chosen for further development mediate IRF-3 nuclear translocation and have antiviral activity against HCV. All induce dose-dependent activation of ISG expression in the absence of nonspecific promoter (β-actin) induction. To analyze in vitro cytotoxicity of lead agonist molecules, an MTS assay was conducted using multiple cell types (Huh7, human liver; MRC5, lung fibroblast; and 293, […]).

The next data set concerns HCV2a virus. Description: HCV immunofluorescence antiviral / focus-forming assay in Huh7 cells. The class given is cell-based, Hepatitis C virus. The settings on record: Huh7 cells pre-treated 24 h (compounds 10 μM), HCV2a MOI 0.1-0.5. Here is the method:
HCV immunofluorescence antiviral assay: Huh7 cells are seeded on a 96-well plate at a density of 5×10^3 cells per well and grown for 24 hours. Compounds that have been diluted to 10 μM in media and contain a final concentration of 0.5% DMSO are added to each well and grown another 24 hours. The compound media solution is removed from the plate and stored in a clean tissue culture dish. Cell monolayers are washed with PBS and HCV2a virus is added at the stated MOI. Virus is incubated for 2-4 hours and then removed, the monolayers are washed with PBS and the compound solutions are replaced into each well.
The cells are grown overnight and then cells are fixed and stained for HCV proteins. All buffers and reagents used are from the Cellomics staining kits described above. HCV specific antibodies from either commercial sources or primary patient serum can be used to detect HCV infected cells in culture. […] The number of infected cells is counted and representative images are saved. […]
To measure levels of HCV infection with or without drug treatment the cells were stained for HCV specific staining using serum and a FITC conjugated fluorescent secondary antibody. […] Using an inverted fluorescent microscope the number of infected cells is quantitated (shown—FIG. 9 bottom panel). […]

Regarding `N#Cc1c(-c2ccccc2)cc(-c2ccccc2)nc1SCC(=O)N1CCOCC1` [KIN400], the “anti-influenza activity (viral nucleoprotein levels)” value (shortened to “anti-influenza activity”) in data set [1] is reported as “efficient, dose-dependent anti-influenza activity”.

In the case of `NS(=O)(=O)c1ccc(-c2ccc(/C=C3/SC(=S)N(Cc4ccco4)C3=O)o2)cc1` [KIN300], the “induction of the ISG54-luciferase reporter” value with ISG54 promoter is listed as “dose-dependent induction”. Moreover, the “nonspecific promoter induction (β-actin-LUC)” value in the data set with actin promoter is “absence of nonspecific promoter induction”. Also, in the data set on Huh7, MRC5 and 293 cells, the “cytotoxicity (MTS assay)” value is reported as “absence of cytotoxicity”. In addition, the “anti-influenza activity” value in data set [1] was “efficient, dose-dependent anti-influenza activity”.

For Interferon, in the data set on HCV2a virus, the “HCV infection (infected cells stained for HCV proteins, IF assay)” value is “completely blocks HCV infection”. Regarding `COc1ccc(NC(=O)Cn2c(=O)n(Cc3ccco3)c(=O)c3oc4ccccc4c32)c(OC)c1` [KIN500], in data set [1], the “anti-influenza activity” value is “efficient, dose-dependent anti-influenza activity”.

(Values after patent US20130039887A1, “Methods of Identifying and Using Anti-Viral Compounds” (KINETA, INC., priority 2010, published 2013).)
